Experimental findings from US20210308211A1, “METHOD OF TREATING VIRAL INFECTIONS” (priority 2020, published 2021) are described below.

Where “and” joins values, the source holds several entries; their conditions need not be identical. Equal values may be shown once. Non-standard residues stand in square brackets, D forms with d. Residues, ends and D or L forms follow the SMILES beside them. pS = N[C@@H](COP(=O)(O)O)C(=O)O

Common to all, as to assay type: in vivo, mouse
One experiment relates to CD4+ T splenocytes. Briefly: Collagen-induced arthritis (CIA) DBA/1 mice, ex vivo T splenocyte proliferation with CII (CFSE, FACS). On the procedure: Next, P140 peptide was administered in a model of mice that develop a RA-like disease (we anticipated to use this mouse model as a negative control of MRL/lpr-lupus prone mice). This model, called collagen-induced arthritis (CIA) mouse model, is the most commonly studied autoimmune model of RA. In this model, autoimmune arthritis is induced by immunizing DBA/1 mice with an emulsion of complete Freund's adjuvant (CFA) and type II collagen (CII), and typically, the first signs of arthritis appear in 21-28 days after immunization (Brand et al., 2007). CIA shares several pathological features with human RA, and CII is a major protein in cartilage, the target tissue of RA. Pathological features include synovial hyperplasia, mononuclear cell infiltration, and cartilage degradation. Susceptibility in these mice is linked to the expression of specific MHC class II genes, DBA/1 have H-2^q haplotype.
P140 peptide was thus administrated intravenously to DBA/1 mice at day −1, +7, +14 and +20 in a setting close to the one we used in MRL/lpr mice (100 μg/injection/mouse). CII in CFA was injected at days +1 and +21 (200 μg, intradermal route). Mouse weight and their clinical score were followed using very classical procedure. Biological parameters were also evaluated (i.e. T cell response, antibody response, joint histology, etc).

A further experiment deals with Balb/c mice. Briefly: 31-day HDM-induced asthma model, BAL cell counts. The conditions noted are these: for B cells / DCs / Eosinophils / Macrophages / Neutrophils / T cells / Total cells: BAL, per mouse. On the procedure:
The aim of this study was to evaluate the effect of the P140 phosphopeptide administered systemically (intravenously) in a 31-day model of HDM-induced asthma in mice. The P140 phosphopeptide was solubilized in sterile water (Braun) and 10x concentrate sterile saline was added to adjust osmolarity to 300 mosm. Osmolarity was controlled with a micro osmometer (Löser, type 15) and validated (303 mosm). The P140 phosphopeptide was used in vivo at the dose of 4 mg/kg by intravenous (i.v.) routes. Control animals received equivalent volumes (2 ml/kg) of saline (Table 8).
Nine-week-old male Balb/c mice were sensitized by intranasal (i.n.) administration of HDM extract (Stallergenes): 1 μg in 25 μl saline on days 0, 1, 2, 3, 4, and 10 μg on days 14 and 21. Mice were challenged by i.n. administration of HDM (1 μg) and/or saline on days 28, 29 and 30. Mice were treated by i.v. injection (2 ml/kg) of P140 or solvent on day 25 (see FIG. 12).
BAL was performed after airway responsiveness measurement twenty-four hours after HDM challenge as described (Daubeuf et al. 2012). Mice were anaesthetized IP (Ketamine 150 mg/kg—Xylasine 10 mg/kg). Blood was collected from the heart, centrifuged at 10,000 g for 2 min and serum stored at −20° C.
After semi-excision of the trachea, a plastic cannula was inserted, and airspace washed with 0.5 ml of 0.9% NaCl injected with a 1 ml syringe. This procedure was performed 10 times. The initial concentrated supernatant of the 2 first lavages (volume=2×0.5 ml administered, approximately 0.5 ml recovered) was collected for cytokine measurements. The remaining BAL fluid was centrifuged (300 g for 5 min, 4° C.), and cell pellets pooled. The cell pellet was suspended in 500 μl of 0.9% NaCl and used for total cell counts evaluated on a Muse® Cell Analyser (Millipore). Differential cell counts were assessed by flow cytometry (LSRII® cytometer, BD Bioscience). BAL cells were added with FCblock (0.5 μl, 553142, BD Bioscience) in a black microplate, incubated for 20 min at room temperature. Then, marker antibodies were added: CD11c-FITC (557400, BD bioscience), Gr-1-PeeFluor610 (61-5931-82, eBioscience), F4/80-PE (12-4801-82, eBioscience), CD11b-APC-Cy7 (557657, BD bioscience), CD45-AlexaFluor700 (103128, BioLegend), CD3-BV605 (564009, BD bioscience), CD19-PE-Cy7 (552854, BD bioscience). Antibodies were incubated with BAL cells for 30 min at room temperature before DAPI (5 μl, BD bioscience) addition, and flow cytometry was performed immediately.
All mice were sensitized to HDM on days 0, 1, 2, 3, 4, 14, 21, and challenged either with saline ([…]) or HDM (challenge with allergen). Results are presented as means±SEM. Differences between groups were tested for statistical significance using Student's t test for inflammatory cells and a two-way ANOVA followed by Bonferroni post-test for airway responses.

In the next experiment the test system is C57BL/6 mice. Briefly: K/B×N serum transfer arthritis, curative protocol. On the procedure: The TCR transgenic mice expressing the KRN and the MHC class II A^g7 molecule (K/B×N mice) have developed a severe inflammatory arthritis. The administration of serum of these mice to healthy recipient mice causes inflammatory arthritis over a period of about 15 days with a peak ignition around day 7 post-injection.
Two mouse serum administrations from K/B×N were performed (day 0 and day 2). The injection of serum (100 μl/mouse) is performed by intra-peritoneal (ip) injection in mice C57BL/6 (or B6) for 8 weeks (n=10); untreated mouse (n=10).
The P140 peptide (100 μg/100 μl; iv retro-orbital) was administered as follows:
Curative treatment: Injection at day 1 and day 4, to guide the peak of inflammatory disease. Preventive treatment: Injection at day −7 and day −2. Bleeding S0 (at day 0) is followed by bloodletting conducted every six days to dispose of serum. The study ends when inflammation has returned to its basal level, to around day 20 (see FIG. 19).
During the peak of inflammation, every day the animals are evaluated, and swelling score of articulation is established. It is ranged from 0 to 4 and based on a joint observation of the animal. In practice, this score is given for each leg (4 values) and these values are added together to get a general score that ranges from 0 to 16 (FIG. 20).

The mark [1] stands for this setting: HDM + P140 (i.v. 4 mg/kg day 25, HDM-challenged).
Where [2] appears, read: P140 i.v. 4 mg/kg day 25, HDM-sensitized, saline-challenged (chronic asthma).
The mark [3] stands for this setting: chronic asthma (saline challenge), 4 mg/kg i.v. day 25, BAL, non-significant.
[4] abbreviates: chronic asthma (saline challenge), 4 mg/kg i.v. day 25, BAL, p<0.05.

`CC[C@H](C)[C@H](NC(=O)[C@H](Cc1ccccc1)NC(=O)[C@H](C)NC(=O)[C@H](Cc1ccc(O)cc1)NC(=O)CNC(=O)[C@H](CCCNC(=N)N)NC(=O)[C@@H]1CCCN1C(=O)[C@H](CCCCN)NC(=O)CNC(=O)[C@H](COP(=O)(O)O)NC(=O)[C@H](CCCNC(=N)N)NC(=O)[C@H](CCCCN)NC(=O)[C@H](CO)NC(=O)[C@H](Cc1ccc(O)cc1)NC(=O)[C@@H](NC(=O)[C@H](CCSC)NC(=O)[C@H](Cc1c[nH]cn1)NC(=O)[C@@H](NC(=O)[C@@H](N)CCCNC(=N)N)[C@@H](C)CC)C(C)C)C(=O)N[C@@H](CCC(=O)O)C(=O)N[C@@H](Cc1ccc(O)cc1)C(=O)O` [Compound P140] (H-RIHMVYSKR[pS]GKPRGYAFIEY-OH; N-terminus and C-terminus assumed): in the experiment on CD4+ T splenocytes (DBA/1 CIA mice, 100 μg/injection i.v. day −1, +7, +14, +20, ex vivo 100 μg CII/mL), the “CD4+ T splenocytes proliferation” value was “strongly diminished”. The “CD8+ T cells proliferation” value with CD4+ T splenocytes (same conditions as CD4+ T cells) is listed as “No effect”. Further, in the experiment on Balb/c mice (setting [1]), the B cells was 59092 and 102246 and 42085 and 25443 and 116814 and 115000 and 53947 and 170980; the DCs is 1034 and 2238 and 1793 and 242 and 586 and 1350 and 733 and 1928; the Eosinophils was 955824 and 1404942 and 636065 and 342046 and 1283190 and 1036803 and 538210 and 1010686; the Macrophages was 58705 and 118771 and 314326 and 126002 and 34364 and 38709 and 29121 and 73491. In the experiment on Balb/c mice (setting [1]), the Neutrophils was 606700 and 510027 and 500004 and 147616 and 371317 and 487119 and 284503 and 24426; the T cells was 400329 and 735865 and 383074 and 243813 and 469834 and 502985 and 334784 and 1056303; the Total cells was 2140000 and 2992000 and 2190000 and 1010000 and 2310000 and 2220000 and 1270000 and 2410000. For the same molecule, in the experiment with Balb/c mice (setting [2]), the B cells was 2297 and 44688 and 22879 and 11101 and 7660; the DCs is 0 and 484 and 461 and 319 and 160; the Eosinophils was 124514 and 450346 and 448074 and 205568 and 239527; the Macrophages was 130734 and 267685 and 360987 and 177815 and 73725. In addition, in the experiment on Balb/c mice (setting [2]), the Neutrophils is 2584 and 35734 and 23986 and 34836 and 2394; the T cells was 57711 and 323523 and 294011 and 208439 and 86810; the Total cells is 448000 and 1390000 and 1510000 and 815000 and 484000. Besides, the “Inflammatory cell recruitment in BAL (in words)” value in the experiment on Balb/c mice (HDM-challenged mice, in comparison to the solvent group) is reported as “no effect”. Moreover, in the experiment on Balb/c mice (setting [3]), the “Number of B cells, change vs solvent group” value was −40% and the “Number of eosinophils, change vs solvent group” value was −25%. In the experiment with Balb/c mice (setting [4]), the “Number of macrophages, increase vs solvent group” value turned out to be 4.5 fold and the “Number of neutrophils, change vs solvent group” value is given as −71%. In the experiment on C57BL/6 mice (curative protocol (injection day 1 and day 4), from day 2, NaCl 10%), this molecule came in with a Weight loss of 15%. The Weight gain in the experiment with C57BL/6 mice (curative protocol, between day 5 and the end of the study, controls 5%) amounted to 20%. Besides, the “Inflammation score, maximum” value with C57BL/6 mice (curative protocol, per rear leg, same for controls) was approximately 1.5.
